We go through seven molecules from US11492385B2, “Long-acting co-agonists of the glucagon and GLP-1 receptors” (Merck Sharp & Dohme Corp., priority 2015, dated 2022).

One experiment has as its target T1, human GCGR (Homo sapiens, UniProt P47871).
T1 construct: expressed in transfected cells; kept under Blasticidin and Hygromycin selection
The experiment can be described thus: cAMP activity assay, cells expressing human GCGR. It counts as cell-based. The conditions noted are these: for pEC50: cAMP production, cells expressing human GCGR, assay buffer with or without 20% human serum (not stated which), read-out: GCGR EC50 human; for hGCGR/hGLP1R (hTone): ratio of human GCGR EC50 to human GLP1R EC50. In a few lines:
(§1)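 Peptides as 10-point titrations from DMSO tested on cells expressing human GLP1R or GCGR. cAMP measured by luminescent kit after overnight room-temperature incubation in the dark. EC50 from four-parameter logistic fit; native GLP-1 and glucagon as controls.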

The target in the next experiment is T2, human GLP1R (Homo sapiens, UniProt P43220).
T2 construct: expressed in transfected cells; kept under Blasticidin and Hygromycin selection
In words: cAMP activity assay, cells expressing human GLP1R. It counts as cell-based. The conditions noted are these: cAMP production, assay buffer with or without 20% human serum (not stated which). In a few lines:
as §1

Each structure is given as a SMILES string. pEC50: −log10 of the molar value. Starred links: 1 amine or outer side, 2 acyl side, 3 side chain; linkers in the order of their positions; H or OH if unused. Non-standard residues stand in square brackets, D forms with d. Residues, ends and D or L forms follow the SMILES beside them. Groups on a side chain read outwards from the residue. *: point of attachment. Phe(4-CH2NH2) = NCc1ccc(C[C@H](N)C(=O)O)cc1; C16 diacid = O=C(O)CCCCCCCCCCCCCCC(=O)*; γGlu = O=C(O)[C@H](CCC(=O)[*:2])N[*:1]; Met(O2) = CS(=O)(=O)CC[C@H](N)C(=O)O; AEEA = NCCOCCOCC(=O)O; Aib = CC(C)(N)C(=O)O

T1 sequence (P47871 26-477): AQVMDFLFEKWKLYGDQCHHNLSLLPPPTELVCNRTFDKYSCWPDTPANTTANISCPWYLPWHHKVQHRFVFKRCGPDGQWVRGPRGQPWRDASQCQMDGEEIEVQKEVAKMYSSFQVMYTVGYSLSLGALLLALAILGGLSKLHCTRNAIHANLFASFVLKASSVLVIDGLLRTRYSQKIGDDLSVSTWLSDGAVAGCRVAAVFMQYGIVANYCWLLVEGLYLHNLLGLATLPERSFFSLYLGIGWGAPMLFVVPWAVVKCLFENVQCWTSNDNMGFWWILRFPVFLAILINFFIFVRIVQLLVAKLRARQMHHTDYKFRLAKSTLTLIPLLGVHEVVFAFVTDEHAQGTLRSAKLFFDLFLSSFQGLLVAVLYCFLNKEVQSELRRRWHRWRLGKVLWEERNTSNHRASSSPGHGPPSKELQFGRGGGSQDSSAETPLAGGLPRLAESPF
T2 sequence (P43220 24-463): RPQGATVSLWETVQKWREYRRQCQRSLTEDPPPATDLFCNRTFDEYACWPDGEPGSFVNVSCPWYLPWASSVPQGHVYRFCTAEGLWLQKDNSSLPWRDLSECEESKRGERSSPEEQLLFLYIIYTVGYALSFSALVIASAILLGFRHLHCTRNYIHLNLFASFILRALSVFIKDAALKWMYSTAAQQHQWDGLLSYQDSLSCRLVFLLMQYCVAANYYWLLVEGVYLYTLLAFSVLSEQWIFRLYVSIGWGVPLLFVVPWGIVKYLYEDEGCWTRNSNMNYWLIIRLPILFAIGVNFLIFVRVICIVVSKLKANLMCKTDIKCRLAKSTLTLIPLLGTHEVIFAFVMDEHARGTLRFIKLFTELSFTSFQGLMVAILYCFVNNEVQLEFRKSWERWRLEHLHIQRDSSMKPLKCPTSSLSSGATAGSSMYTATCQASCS

As for `CC(C)C[C@H](NC(=O)[C@H](Cc1ccc(O)cc1)NC(=O)[C@H](CCCCN)NC(=O)[C@H](CO)NC(=O)[C@H](Cc1ccc(O)cc1)NC(=O)[C@H](CC(=O)O)NC(=O)[C@H](CO)NC(=O)[C@@H](NC(=O)[C@H](Cc1ccccc1)NC(=O)[C@@H](NC(=O)CNC(=O)[C@H](CCC(N)=O)NC(=O)C(C)(C)NC(=O)[C@@H](N)Cc1c[nH]cn1)[C@@H](C)O)[C@@H](C)O)C(=O)N[C@@H](CC(=O)O)C(=O)N[C@@H](C)C(=O)N[C@@H](CCCNC(=N)N)C(=O)N[C@@H](C)C(=O)N[C@@H](C)C(=O)N[C@@H](CCC(N)=O)C(=O)N[C@@H](CCCCNC(=O)COCCOCCNC(=O)COCCOCCNC(=O)CC[C@H](NC(=O)CCCCCCCCCCCCCCC(=O)O)C(=O)O)C(=O)N[C@@H](Cc1ccccc1)C(=O)N[C@H](C(=O)N[C@@H](CCC(N)=O)C(=O)N[C@@H](Cc1c[nH]c2ccccc12)C(=O)N[C@@H](CC(C)C)C(=O)N[C@@H](CCS(C)(=O)=O)C(=O)N[C@@H](CC(=O)O)C(=O)N[C@H](C(N)=O)[C@@H](C)O)C(C)C` [compound 20] (H-H[Aib]QGTFTSDYSKYLDARAAQK([AEEA-AEEA-γGlu-C16 diacid])FVQWL[Met(O2)]DT-NH2), on human GCGR, the pEC50 was 10.52 and the “hGCGR/hGLP1R (hTone)” value was determined as 0.98. Also, the pEC50 at human GLP1R is 10.52.
As to `CC(C)C[C@H](NC(=O)[C@H](Cc1ccc(O)cc1)NC(=O)[C@H](CCCCN)NC(=O)[C@H](CO)NC(=O)[C@H](Cc1ccc(O)cc1)NC(=O)[C@H](CC(=O)O)NC(=O)[C@H](CO)NC(=O)[C@@H](NC(=O)[C@H](Cc1ccccc1)NC(=O)[C@@H](NC(=O)CNC(=O)[C@H](CCC(N)=O)NC(=O)[C@@H](CO)NC(=O)[C@@H](N)Cc1c[nH]cn1)[C@@H](C)O)[C@@H](C)O)C(=O)N[C@@H](CC(=O)O)C(=O)N[C@@H](C)C(=O)N[C@@H](CCCNC(=N)N)C(=O)N[C@@H](C)C(=O)N[C@@H](C)C(=O)N[C@@H](Cc1ccc(CNC(=O)COCCOCCNC(=O)COCCOCCNC(=O)CC[C@H](NC(=O)CCCCCCCCCCCCCCC(=O)O)C(=O)O)cc1)C(=O)N[C@@H](CC(=O)O)C(=O)N[C@@H](Cc1ccccc1)C(=O)N[C@H](C(=O)N[C@@H](CCC(N)=O)C(=O)N[C@@H](Cc1c[nH]c2ccccc12)C(=O)N[C@@H](CC(C)C)C(=O)N[C@@H](CC(C)C)C(=O)N[C@@H](CC(=O)O)C(=O)N[C@H](C(N)=O)[C@@H](C)O)C(C)C` [compound 22] (H-H[dS]QGTFTSDYSKYLDARAA[Phe(4-CH2NH2)]([AEEA-AEEA-γGlu-C16 diacid])DFVQWLLDT-NH2), the negative logarithm of the EC50 (pEC50) on human GCGR is 10.70; at human GLP1R, 9.54. In addition, on human GCGR, the “hGCGR/hGLP1R (hTone)” value is 0.08.
As to `CC(C)C[C@H](NC(=O)[C@H](Cc1ccc(O)cc1)NC(=O)[C@H](CCCCN)NC(=O)[C@H](CO)NC(=O)[C@H](Cc1ccc(O)cc1)NC(=O)[C@H](CC(=O)O)NC(=O)[C@H](CO)NC(=O)[C@@H](NC(=O)[C@H](Cc1ccccc1)NC(=O)[C@@H](NC(=O)CNC(=O)[C@H](CCC(N)=O)NC(=O)[C@@H](CO)NC(=O)[C@@H](N)Cc1c[nH]cn1)[C@@H](C)O)[C@@H](C)O)C(=O)N[C@@H](CC(=O)O)C(=O)N[C@@H](C)C(=O)N[C@@H](CCCNC(=N)N)C(=O)N[C@@H](C)C(=O)N[C@@H](C)C(=O)N[C@@H](CCC(N)=O)C(=O)N[C@@H](Cc1ccc(CNC(=O)COCCOCCNC(=O)COCCOCCNC(=O)CC[C@H](NC(=O)CCCCCCCCCCCCCCC(=O)O)C(=O)O)cc1)C(=O)N[C@@H](Cc1ccccc1)C(=O)N[C@H](C(=O)N[C@@H](CCC(N)=O)C(=O)N[C@@H](Cc1c[nH]c2ccccc12)C(=O)N[C@@H](CC(C)C)C(=O)N[C@@H](CC(C)C)C(=O)N[C@@H](CC(=O)O)C(=O)N[C@H](C(N)=O)[C@@H](C)O)C(C)C` [compound 23] (H-H[dS]QGTFTSDYSKYLDARAAQ[Phe(4-CH2NH2)]([AEEA-AEEA-γGlu-C16 diacid])FVQWLLDT-NH2), on human GCGR, the pEC50 is 10.40 and the “hGCGR/hGLP1R (hTone)” value turned out to be 0.14. The molecule also showed a pEC50 at human GLP1R of 9.57.
As for `CC(C)C[C@H](NC(=O)[C@H](Cc1ccc(O)cc1)NC(=O)[C@H](Cc1ccc(CNC(=O)COCCOCCNC(=O)COCCOCCNC(=O)CC[C@H](NC(=O)CCCCCCCCCCCCCCC(=O)O)C(=O)O)cc1)NC(=O)[C@H](CO)NC(=O)[C@H](Cc1ccc(O)cc1)NC(=O)[C@H](CC(=O)O)NC(=O)[C@H](CO)NC(=O)[C@@H](NC(=O)[C@H](Cc1ccccc1)NC(=O)[C@@H](NC(=O)CNC(=O)[C@H](CCC(N)=O)NC(=O)[C@@H](CO)NC(=O)[C@@H](N)Cc1c[nH]cn1)[C@@H](C)O)[C@@H](C)O)C(=O)N[C@@H](CC(=O)O)C(=O)N[C@@H](CCC(=O)O)C(=O)N[C@@H](CCCNC(=N)N)C(=O)N[C@@H](C)C(=O)N[C@@H](C)C(=O)N[C@@H](CCC(N)=O)C(=O)N[C@@H](CC(=O)O)C(=O)N[C@@H](Cc1ccccc1)C(=O)N[C@H](C(=O)N[C@@H](CCC(N)=O)C(=O)N[C@@H](Cc1c[nH]c2ccccc12)C(=O)N[C@@H](CC(C)C)C(=O)N[C@@H](CCS(C)(=O)=O)C(=O)N[C@@H](CC(=O)O)C(=O)N[C@H](C(N)=O)[C@@H](C)O)C(C)C` [compound 24] (H-H[dS]QGTFTSDYS[Phe(4-CH2NH2)]([AEEA-AEEA-γGlu-C16 diacid])YLDERAAQDFVQWL[Met(O2)]DT-NH2; N-terminus assumed), on human GCGR, the pEC50 is 9.11 and the “hGCGR/hGLP1R (hTone)” value is 4.76. The same molecule showed a pEC50 on human GLP1R of 9.43.
Regarding `CC(C)C[C@H](NC(=O)[C@H](Cc1c[nH]c2ccccc12)NC(=O)[C@H](CCC(N)=O)NC(=O)[C@@H](NC(=O)[C@H](Cc1ccccc1)NC(=O)[C@H](CC(=O)O)NC(=O)[C@H](CCC(N)=O)NC(=O)[C@H](C)NC(=O)[C@H](C)NC(=O)[C@H](CCCNC(=N)N)NC(=O)C(C)(C)NC(=O)[C@H](CC(=O)O)NC(=O)[C@H](CC(C)C)NC(=O)[C@H](Cc1ccc(O)cc1)NC(=O)[C@H](Cc1ccc(CNC(=O)COCCOCCNC(=O)COCCOCCNC(=O)CC[C@H](NC(=O)CCCCCCCCCCCCCCC(=O)O)C(=O)O)cc1)NC(=O)[C@H](CO)NC(=O)[C@H](Cc1ccc(O)cc1)NC(=O)[C@H](CC(=O)O)NC(=O)[C@H](CO)NC(=O)[C@@H](NC(=O)[C@H](Cc1ccccc1)NC(=O)[C@@H](NC(=O)CNC(=O)[C@H](CCC(N)=O)NC(=O)C(C)(C)NC(=O)[C@@H](N)Cc1c[nH]cn1)[C@@H](C)O)[C@@H](C)O)C(C)C)C(=O)N[C@@H](CCS(C)(=O)=O)C(=O)N[C@@H](CC(=O)O)C(=O)N[C@H](C(N)=O)[C@@H](C)O` [compound 25] (H-H[Aib]QGTFTSDYS[Phe(4-CH2NH2)]([AEEA-AEEA-γGlu-C16 diacid])YLD[Aib]RAAQDFVQWL[Met(O2)]DT-NH2), the pEC50 on human GCGR was 9.49; on human GLP1R, 10.70. Also, the “hGCGR/hGLP1R (hTone)” value on human GCGR is 14.00.
For `CC(C)C[C@H](NC(=O)[C@H](Cc1ccc(O)cc1)NC(=O)[C@H](CCCCN)NC(=O)[C@H](CO)NC(=O)[C@H](Cc1ccc(O)cc1)NC(=O)[C@H](CC(=O)O)NC(=O)[C@H](CO)NC(=O)[C@@H](NC(=O)[C@H](Cc1ccccc1)NC(=O)[C@@H](NC(=O)CNC(=O)[C@H](CCC(N)=O)NC(=O)C(C)(C)NC(=O)[C@@H](N)Cc1c[nH]cn1)[C@@H](C)O)[C@@H](C)O)C(=O)N[C@@H](CC(=O)O)C(=O)N[C@@H](CCC(=O)O)C(=O)N[C@@H](CCCNC(=N)N)C(=O)N[C@@H](C)C(=O)N[C@@H](C)C(=O)N[C@@H](Cc1ccc(CNC(=O)COCCOCCNC(=O)COCCOCCNC(=O)CC[C@H](NC(=O)CCCCCCCCCCCCCCC(=O)O)C(=O)O)cc1)C(=O)N[C@@H](CC(=O)O)C(=O)N[C@@H](Cc1ccccc1)C(=O)N[C@H](C(=O)N[C@@H](CCC(N)=O)C(=O)N[C@@H](Cc1c[nH]c2ccccc12)C(=O)N[C@@H](CC(C)C)C(=O)N[C@@H](CC(C)C)C(=O)N[C@@H](CCCCN)C(=O)N[C@H](C(N)=O)[C@@H](C)O)C(C)C` [compound 26] (H-H[Aib]QGTFTSDYSKYLDERAA[Phe(4-CH2NH2)]([AEEA-AEEA-γGlu-C16 diacid])DFVQWLLKT-NH2), on human GCGR, the pEC50 is 9.28 and the “hGCGR/hGLP1R (hTone)” value is listed as 4.68. The molecule further had a pEC50 at human GLP1R of 9.96.
Consider `CC(C)C[C@H](NC(=O)[C@H](Cc1ccc(O)cc1)NC(=O)[C@H](CCCCN)NC(=O)[C@H](CO)NC(=O)[C@H](Cc1ccc(O)cc1)NC(=O)[C@H](CC(=O)O)NC(=O)[C@H](CO)NC(=O)[C@@H](NC(=O)[C@H](Cc1ccccc1)NC(=O)[C@@H](NC(=O)CNC(=O)[C@H](CCC(N)=O)NC(=O)C(C)(C)NC(=O)[C@@H](N)Cc1c[nH]cn1)[C@@H](C)O)[C@@H](C)O)C(=O)N[C@@H](CC(=O)O)C(=O)N[C@@H](CCC(=O)O)C(=O)N[C@@H](CCCNC(=N)N)C(=O)N[C@@H](C)C(=O)N[C@@H](C)C(=O)N[C@@H](CCC(N)=O)C(=O)N[C@@H](Cc1ccc(CNC(=O)COCCOCCNC(=O)COCCOCCNC(=O)CC[C@H](NC(=O)CCCCCCCCCCCCCCC(=O)O)C(=O)O)cc1)C(=O)N[C@@H](Cc1ccccc1)C(=O)N[C@H](C(=O)N[C@@H](CCC(N)=O)C(=O)N[C@@H](Cc1c[nH]c2ccccc12)C(=O)N[C@@H](CC(C)C)C(=O)N[C@@H](CC(C)C)C(=O)N[C@@H](CCCCN)C(=O)N[C@H](C(N)=O)[C@@H](C)O)C(C)C` [compound 27] (H-H[Aib]QGTFTSDYSKYLDERAAQ[Phe(4-CH2NH2)]([AEEA-AEEA-γGlu-C16 diacid])FVQWLLKT-NH2), for which, at human GCGR, the pEC50 is 9.36 and the “hGCGR/hGLP1R (hTone)” value worked out at 9.24. The pEC50 on human GLP1R was 10.30.
